DBAASP
≈ marks a conversion by molar mass, not a printed value. Where “and” joins values, the source holds several entries; their conditions need not be identical. Equal entries are not always repeated.

Columns and labels:
Experiment in all cases: ≥ marks a high value that may be exact or a test limit, other limits are often not marked, values filed in µg/mL are converted to µM
Escherichia coli DL7 = system: Escherichia coli DL7
Escherichia coli MG1655 = system: Escherichia coli MG1655
[1] = system: Escherichia coli MG1655 ΔrecA
[2] = system: Mycobacterium tuberculosis H37Rv
Bacillus subtilis PS832 = system: Bacillus subtilis PS832
[3] = system: Streptococcus pneumoniae ATCC 49619
[4] = system: Staphylococcus epidermidis ATCC 12228
[5] = system: Klebsiella aerogenes ATCC 13048
[6] = system: Candida albicans ATCC 90028
Saccharomyces cerevisiae = system: Saccharomyces cerevisiae
[7] = system: Candida parapsilosis ATCC 22019
Listeria ivanovii = system: Listeria ivanovii
[8] = system: Klebsiella pneumoniae ATCC 13883
[9] = system: Enterococcus faecalis ATCC 29212
[10] = system: Staphylococcus aureus ATCC BAA-44
[11] = system: Streptococcus pyogenes ATCC 19615
[12] = system: Pseudomonas aeruginosa ATCC 27853
[13] = system: Escherichia coli ATCC 25922
[14] = system: Acinetobacter baumannii ATCC 19606
[15] = system: Staphylococcus aureus ATCC 25923
[16] = system: Mycobacterium tuberculosis CSU87
Botrytis cinerea = system: Botrytis cinerea
Fusarium culmorum = system: Fusarium culmorum
Trichoderma viride = system: Trichoderma viride
Neurospora crassa = system: Neurospora crassa
Pediococcus acidilactici = system: Pediococcus acidilactici
Ascochyta pisi = system: Ascochyta pisi
Escherichia coli D22 = system: Escherichia coli D22
Micrococcus luteus = system: Micrococcus luteus
Escherichia coli D31 = system: Escherichia coli D31
Alternaria brassicicola = system: Alternaria brassicicola
Aerococcus viridans = system: Aerococcus viridans
Fusarium haematococcum = system: Fusarium haematococcum
Salmonella typhimurium = system: Salmonella typhimurium
Bacillus subtilis = system: Bacillus subtilis
Bacillus megaterium = system: Bacillus megaterium
[17] = system: Streptococcus sanguinis ATCC 10556
[18] = system: Streptococcus sobrinus ATCC 6715
[19] = system: Streptococcus mutans UA159
Klebsiella pneumoniae = system: Klebsiella pneumoniae
[20] = system: Mycobacterium tuberculosis mc2-6020
[21] = system: Bacillus subtilis BGSC 1A1
Streptococcus mutans = system: Streptococcus mutans
[22] = system: Mycobacterium tuberculosis mc2-6230
Streptococcus agalactiae = system: Streptococcus agalactiae
Streptococcus pyogenes = system: Streptococcus pyogenes

With `CC(C)C[C@H](NC(=O)CNC(=O)[C@H](C)NC(=O)[C@@H](N)CCCN=C(N)N)C(=O)N[C@@H](CCC(N)=O)C(=O)N[C@@H](Cc1ccccc1)C(=O)N1CCC[C@H]1C(=O)N[C@H](C(=O)NCC(=O)N[C@@H](CCCN=C(N)N)C(=O)N[C@H](C(=O)N[C@@H](Cc1cnc[nH]1)C(=O)N[C@@H](CCCN=C(N)N)C(=O)N[C@@H](CC(C)C)C(=O)N[C@@H](CC(C)C)C(=O)N[C@@H](CCCN=C(N)N)C(=O)N[C@@H](CCCCN)C(N)=O)C(C)C)C(C)C` [RAGLQFPVGRVHRLLRK] the MIC (Escherichia coli DL7) was ≥ 32 µM and 16 µM, the MIC (Escherichia coli MG1655) was no less than 64 µM and the MIC [1] was no less than 32 µM. For the same molecule, the MIC [2] was no less than 300 µM, the MIC (Bacillus subtilis PS832) was 8 µM (≈ 16 µg/mL) and the MIC [3] was no less than 300 µM. The MIC [4] was 8 µM (≈ 16 µg/mL) and the MIC [5] was no less than 64 µM.

With `CC[C@H](C)[C@H](NC(=O)[C@H](CCCN=C(N)N)NC(=O)[C@H](CO)NC(=O)[C@H](CC(C)C)NC(=O)[C@H](Cc1ccccc1)NC(=O)[C@H](CO)NC(=O)[C@@H](N)Cc1ccccc1)C(=O)N[C@@H](Cc1ccccc1)C(N)=O` [FSFLSRIF] the MIC [6] was no less than 100 µM, the MIC (Saccharomyces cerevisiae) was 25 µM (≈ 25.4 µg/mL) and the MIC [7] was no less than 100 µM. The MIC (Listeria ivanovii) was no less than 100 µM, the MIC [8] was no less than 100 µM and the MIC [9] was greater than 100 µM. It also gave an MIC [10] of no less than 100 µM, an MIC [11] of no less than 50 µM and an MIC [12] greater than 100 µM. For the same molecule, the MIC [13] was 100 µM (≈ 102 µg/mL), the MIC [14] was greater than 100 µM and the MIC [15] was greater than 100 µM.

`CC(C)C[C@H](NC(=O)[C@H](CC(C)C)NC(=O)[C@H](CCCCN)NC(=O)[C@H](CCCCN)NC(=O)[C@H](CC(C)C)NC(=O)[C@H](CC(C)C)NC(=O)[C@@H](N)CS)C(=O)N[C@@H](CCCCN)C(=O)N[C@@H](CCCCN)C(N)=O` [CLLKKLLKK] was tested, and the MIC [16] was no less than 460 µM and the MIC [2] was no less than 460 µM.

`CC[C@H](C)[C@H](NC(=O)[C@@H](NC(=O)[C@@H]1CCCN1C(=O)[C@@H](NC(=O)[C@@H]1CCCN1C(=O)[C@H](CCCCN)NC(=O)[C@H](CCCCN)NC(=O)[C@H](CO)NC(=O)CN)C(C)C)[C@@H](C)CC)C(=O)N[C@@H](Cc1ccc(O)cc1)C(=O)N[C@H]1CSSC[C@@H](C(=O)N[C@@H](CCC(N)=O)C(=O)N[C@@H](CCCN=C(N)N)C(=O)O)NC(=O)[C@H](CCCCN)NC(=O)CNC(=O)[C@H]([C@@H](C)O)NC(=O)[C@H](CCCN=C(N)N)NC(=O)[C@H](CCCN=C(N)N)NC(=O)[C@H](CC(N)=O)NC1=O` [GSKKPVPIIYCNRRTGKCQR] showed an MIC (Botrytis cinerea) of 7.07 µM (≈ 16.3 µg/mL), an MIC (Fusarium culmorum) of 14.1 µM (≈ 32.6 µg/mL) and an MIC (Trichoderma viride) of 14.1 µM (≈ 32.6 µg/mL). For the same molecule, the MIC (Neurospora crassa) was 7.07 µM (≈ 16.3 µg/mL), the MIC (Pediococcus acidilactici) was 28.3 µM (≈ 65.1 µg/mL) and the MIC (Ascochyta pisi) was 14.1 µM (≈ 32.6 µg/mL). It also gave an MIC (Escherichia coli D22) of 28.3 µM (≈ 65.1 µg/mL), an MIC (Micrococcus luteus) of 3.54 µM (≈ 8.14 µg/mL) and an MIC (Escherichia coli D31) of 28.3 µM (≈ 65.1 µg/mL). The MIC (Alternaria brassicicola) was 7.07 µM (≈ 16.3 µg/mL), the MIC (Aerococcus viridans) was 3.54 µM (≈ 8.14 µg/mL) and the MIC (Fusarium haematococcum) was 3.54 µM (≈ 8.14 µg/mL). For the same molecule, the MIC (Salmonella typhimurium) was 28.3 µM (≈ 65.1 µg/mL), the MIC (Bacillus subtilis) was 28.3 µM (≈ 65.1 µg/mL) and the MIC (Bacillus megaterium) was 3.54 µM (≈ 8.14 µg/mL).

With `NCCCC[C@H](NC(=O)[C@H](CCCCN)NC(=O)[C@H](Cc1ccccc1)NC(=O)[C@H](Cc1ccccc1)NC(=O)[C@H](CCCCN)NC(=O)[C@H](CCCCN)NC(=O)[C@H](Cc1ccccc1)NC(=O)[C@H](Cc1ccccc1)NC(=O)[C@@H](N)CCCCN)C(=O)N[C@@H](Cc1c[nH]c2ccccc12)C(=O)O` [KFFKKFFKKW] the MIC [17] was no less than 357 µM, the MIC [18] was no less than 179 µM and the MIC [19] was no less than 357 µM.

Molecule `CC[C@H](C)[C@H](N)C(=O)N[C@@H](CC(C)C)C(=O)N[C@@H](CO)C(=O)N[C@@H](CC(C)C)C(=O)N[C@@H](CCCN=C(N)N)C(=O)N[C@@H](Cc1c[nH]c2ccccc12)C(=O)N[C@@H](Cc1c[nH]c2ccccc12)C(=O)N[C@@H](CCCN=C(N)N)C(=O)N[C@@H](CCCCN)C(=O)N[C@@H](Cc1c[nH]c2ccccc12)C(=O)N[C@@H](Cc1c[nH]c2ccccc12)C(=O)N[C@@H](CCCCN)C(=O)N[C@@H](CCCCN)C(=O)O` [ILSLRWWRKWWKK] has an MIC (Klebsiella pneumoniae) of 136 µM (≈ 257 µg/mL), an MIC [20] of 16 µM (≈ 30.2 µg/mL) and an MIC [21] of 4 µM (≈ 7.55 µg/mL). The MIC (Streptococcus mutans) was 4 µM (≈ 7.55 µg/mL), the MIC [12] was 32 µM (≈ 60.4 µg/mL) and the MIC [13] was 16 µM (≈ 30.2 µg/mL). It also gave an MIC [3] of 16 µM (≈ 30.2 µg/mL), an MIC [22] of no less than 32 µM and an MIC (Streptococcus agalactiae) of 8 µM (≈ 15.1 µg/mL). It also gave an MIC [15] of 32 µM (≈ 60.4 µg/mL) and an MIC (Streptococcus pyogenes) of 2 µM (≈ 3.77 µg/mL).
